Data reported in US6503935B1, “Imidazoles and related compounds as α1A agonists” (Abbott Laboratories, priority 1998, dated 2003).
Structures can show the parent of a compound that is named as a salt. Where two headings read alike, the source gives them in different places.

Columns and labels:
[1] = target: T1, α1A (rat submaxillary gland) (Rattus norvegicus, UniProt P43140); test: Radioligand binding with [3H]-prazosin, α1A
T1 construct: α1A (rat submaxillary gland); from tissue; host or cells: rat submaxillary gland
T1 sequence (P43140 1-466): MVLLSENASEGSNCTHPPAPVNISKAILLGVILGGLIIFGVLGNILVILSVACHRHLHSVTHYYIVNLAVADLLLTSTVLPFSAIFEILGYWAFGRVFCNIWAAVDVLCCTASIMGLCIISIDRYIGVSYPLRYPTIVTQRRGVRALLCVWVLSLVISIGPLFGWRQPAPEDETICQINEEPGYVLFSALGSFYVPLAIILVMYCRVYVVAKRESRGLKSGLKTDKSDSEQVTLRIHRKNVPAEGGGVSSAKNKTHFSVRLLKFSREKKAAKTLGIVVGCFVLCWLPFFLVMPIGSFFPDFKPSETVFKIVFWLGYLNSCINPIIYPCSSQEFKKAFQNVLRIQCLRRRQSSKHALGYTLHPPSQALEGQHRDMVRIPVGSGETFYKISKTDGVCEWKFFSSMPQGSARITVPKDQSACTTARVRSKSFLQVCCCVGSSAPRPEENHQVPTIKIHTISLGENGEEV
Procedure: (§1) For purposes of discussing α1 adrenoceptor subtypes, the IUPHAR convention of using lower case letters to define molecular clones and upper case letters to indicate pharmacologically defined adrenoceptors has been followed. Compounds of formula I were evaluated in radioligand binding assays specific for α1A (rat submaxillary gland), α1b (hamster receptor expressed in mouse fibroblasts) and α1d (rat receptor expressed in mouse fibroblasts) using [^3H]-prazosin as the radioligand as described in Knepper, et al. J. Pharm.

[2] = target: T2, α1b (hamster receptor expressed in mouse fibroblasts) (Mesocricetus auratus, UniProt P18841); test: Radioligand binding with [3H]-prazosin, α1b
T2 construct: expressed in transfected cells; host or cells: mouse fibroblasts
T2 sequence (P18841 1-515): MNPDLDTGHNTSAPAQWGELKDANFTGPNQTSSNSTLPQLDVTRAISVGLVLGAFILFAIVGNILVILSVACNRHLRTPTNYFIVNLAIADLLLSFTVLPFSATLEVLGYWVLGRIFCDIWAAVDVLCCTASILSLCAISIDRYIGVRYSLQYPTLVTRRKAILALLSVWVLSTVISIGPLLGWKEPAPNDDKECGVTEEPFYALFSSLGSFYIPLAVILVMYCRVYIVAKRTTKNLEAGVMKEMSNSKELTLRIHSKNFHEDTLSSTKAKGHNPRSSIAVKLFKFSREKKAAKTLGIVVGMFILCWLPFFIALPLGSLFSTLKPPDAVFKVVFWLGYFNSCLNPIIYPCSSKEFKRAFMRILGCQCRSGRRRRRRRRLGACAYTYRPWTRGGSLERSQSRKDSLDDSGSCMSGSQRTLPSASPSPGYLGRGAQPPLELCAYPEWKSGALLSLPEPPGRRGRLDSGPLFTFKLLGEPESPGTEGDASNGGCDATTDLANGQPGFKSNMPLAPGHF
Procedure: as §1

[3] = target: T3, α1d (rat receptor expressed in mouse fibroblasts) (Rattus norvegicus, UniProt P23944); test: Radioligand binding with [3H]-prazosin, α1d
T3 construct: expressed in transfected cells; host or cells: mouse fibroblasts
T3 sequence (P23944 1-561): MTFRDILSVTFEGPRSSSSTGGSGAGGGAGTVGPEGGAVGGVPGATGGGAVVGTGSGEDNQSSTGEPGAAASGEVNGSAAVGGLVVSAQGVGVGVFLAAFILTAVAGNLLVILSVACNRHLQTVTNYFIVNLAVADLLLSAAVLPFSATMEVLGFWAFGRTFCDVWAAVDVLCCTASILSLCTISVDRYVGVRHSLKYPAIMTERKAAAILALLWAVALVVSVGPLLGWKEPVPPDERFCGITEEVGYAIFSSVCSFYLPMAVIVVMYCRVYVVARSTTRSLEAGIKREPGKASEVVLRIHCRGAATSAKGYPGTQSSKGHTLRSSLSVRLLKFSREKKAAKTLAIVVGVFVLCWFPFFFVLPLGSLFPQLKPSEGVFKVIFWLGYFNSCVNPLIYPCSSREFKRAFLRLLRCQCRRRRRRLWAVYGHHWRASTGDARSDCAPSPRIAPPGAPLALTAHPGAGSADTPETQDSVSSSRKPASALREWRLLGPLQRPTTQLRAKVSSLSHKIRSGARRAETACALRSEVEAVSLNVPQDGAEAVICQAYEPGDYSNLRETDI
Procedure: as §1

α1A (rabbit urethra) = target: T4, α1A (rabbit urethra) (Oryctolagus cuniculus, UniProt O02824); test: Agonist contraction of smooth muscle tissue, rabbit urethra; format: cell-based; details: read-out: Agonist Tissue Response (pD2) α1A (rab ureth) (converted)
T4 construct: tested for α1A functional activity using rabbit urethra; from tissue; host or cells: rabbit urethra
T4 sequence (O02824 1-466): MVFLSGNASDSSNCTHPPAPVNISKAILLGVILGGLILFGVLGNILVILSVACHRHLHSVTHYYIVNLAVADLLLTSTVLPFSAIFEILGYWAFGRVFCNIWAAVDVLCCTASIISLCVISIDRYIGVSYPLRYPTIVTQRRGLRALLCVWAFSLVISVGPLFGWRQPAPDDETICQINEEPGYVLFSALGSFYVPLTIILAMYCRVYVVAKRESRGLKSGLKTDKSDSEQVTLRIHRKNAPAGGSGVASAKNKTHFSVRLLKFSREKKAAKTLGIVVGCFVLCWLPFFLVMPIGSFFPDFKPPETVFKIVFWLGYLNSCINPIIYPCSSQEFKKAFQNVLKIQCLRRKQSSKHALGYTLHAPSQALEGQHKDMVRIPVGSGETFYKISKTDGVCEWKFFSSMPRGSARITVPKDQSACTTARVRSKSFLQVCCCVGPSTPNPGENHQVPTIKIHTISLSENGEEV
Procedure: Most of the compounds were tested for α1A functional activity using rabbit urethra as follows. Female New Zealand white rabbits (2.0-3.5 Kg) were sedated with CO2 and decapitated. […] Subsequent experimental conditions were as described above for the other tissues. Agonist concentration response curves were cumulative except for the vas deferens assay in which the transient response made such measurements impractical.

α1B (rat spleen) = target: T5, α1B (rat spleen) (Rattus norvegicus, UniProt P15823); test: Agonist contraction of smooth muscle tissue, rat spleen; format: cell-based; details: read-out: Agonist Tissue Response (pD2) α1B (rat spleen) (converted)
T5 construct: α1B (rat spleen) and α1D (rat aorta) receptors; from tissue; host or cells: rat spleen
T5 sequence (P15823 1-515): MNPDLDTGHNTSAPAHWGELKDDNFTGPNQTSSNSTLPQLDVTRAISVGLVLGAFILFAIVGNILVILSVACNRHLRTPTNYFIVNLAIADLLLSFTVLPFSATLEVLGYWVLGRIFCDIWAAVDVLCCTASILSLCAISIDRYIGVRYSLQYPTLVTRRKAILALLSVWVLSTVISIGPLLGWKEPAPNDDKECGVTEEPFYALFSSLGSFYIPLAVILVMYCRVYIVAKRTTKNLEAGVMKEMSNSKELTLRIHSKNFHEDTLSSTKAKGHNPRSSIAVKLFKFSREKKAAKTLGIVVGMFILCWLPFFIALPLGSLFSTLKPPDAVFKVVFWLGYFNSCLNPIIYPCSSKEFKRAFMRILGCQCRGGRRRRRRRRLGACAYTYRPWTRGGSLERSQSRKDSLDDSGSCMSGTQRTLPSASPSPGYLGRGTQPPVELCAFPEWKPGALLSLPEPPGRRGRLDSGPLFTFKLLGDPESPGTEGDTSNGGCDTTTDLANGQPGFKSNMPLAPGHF

α1D (rat aorta) = target: T6, α1D (rat aorta) (Rattus norvegicus, UniProt P23944); test: Agonist contraction of smooth muscle tissue, rat aorta; format: cell-based; details: read-out: Agonist Tissue Response (pD2) α1D (rat aorta) (converted)
T6 construct: α1B (rat spleen) and α1D (rat aorta) receptors; from tissue; host or cells: rat aorta strips, endothelium removed
T6 sequence (P23944 1-561): T3 sequence (P23944 1-561)

[4] = rat submaxillary gland, [3H]-prazosin
[5] = hamster receptor expressed in mouse fibroblasts, [3H]-prazosin, read-out: Radioligand Binding Ki α1b (Hamster)
[6] = rat receptor expressed in mouse fibroblasts, [3H]-prazosin, read-out: Radioligand Binding Ki α1d (Rat)
[7] = Radioligand Binding Ki α1d (Rat), rat receptor expressed in mouse fibroblasts, [3H]-prazosin

Compound | Ki [1, 4] [µM] | Ki [2, 5] [µM] | Ki [3, 6] [µM] | Ki [2] [µM] | Ki [3, 7] [µM] | EC50 (α1A (rabbit urethra); rabbit urethra) [µM] | further results
Cn1cnc(S(=O)(=O)Nc2cccc3c2CCCC3c2cnc[nH]2)c1 (stereo not shown) [Example 66, N-[5-(1H-imidazol-5-yl)-5,6,7,8-tetrahydro-1-naphthalenyl]-1-methyl-1H-imidazole-4-sulfonamide] | 0.366 | 1.13 | 0.458 |  |  |  | 
CS(=O)(=O)Nc1ccc(F)c(Cc2c[nH]cn2)c1 [Example 41, N-[4-fluoro-3-(1H-imidazol-4-ylmethyl)phenyl]methanesulfonamide, maleate] | 0.752 |  |  | 1.63 | 0.348 | 13.5 | 
CS(=O)(=O)Nc1cc(Cc2c[nH]cn2)ccc1O [Example 11, N-[2-hydroxy-5-(1H-imidazol-4-ylmethyl)phenyl]methanesulfonamide, hydrochloride] | 0.0822 |  |  | 1.4 | 0.311 | 0.148 | EC50 (α1B (rat spleen); rat spleen): 1.2 µM; EC50 (α1D (rat aorta); rat aorta, endothelium removed): 0.692 µM
COc1ccc(S(=O)(=O)Nc2cccc3c2CCCC3c2cnc[nH]2)cc1 (stereo not shown) [Example 71, N-[5-(1H-imidazol-5-yl)-5,6,7,8-tetrahydro-1-naphthalenyl]-4-methoxybenzenesulfonamide] | 1.54 | 1.05 | 2.29 |  |  |  | 
O=S(=O)(Nc1cccc2c1CCCC2c1cnc[nH]1)c1cccc2cccnc12 (stereo not shown) [Example 73, N-[5-(1H-imidazol-5-yl)-5,6,7,8-tetrahydro-1-naphthalenyl]-8-quinolinesulfonamide] | 1.02 | 1.19 | 2.23 |  |  | 17.8 | 
5-Chloro-N-[5-(1H-imidazol-5-yl)-5,6,7,8-tetrahydro-1-naphthalenyl]-3-methyl-2,3-dihydro-1-benzothiophene-2-sulfonamide [Example 77] | 0.65 | 0.32 | 0.111 |  |  |  | 
CCS(=O)(=O)Nc1cccc(C(C)c2c[nH]cn2)c1 (stereo not shown) [Example 37, N-{3-[1-(1H-imidazol-4-yl)ethyl]phenyl}ethanesulfonamide, maleate] | 0.772 |  |  | 2.28 | 0.452 | 5.37 | 
Cn1cnc(C2CCCc3c2ccc(O)c3NS(C)(=O)=O)c1 (stereo not shown) [Example 5, N-[2-hydroxy-5-(1-methyl-1H-imidazol-4-yl)-5,6,7,8-tetrahydro-1-naphthalenyl]methanesulfonamide, hydrochloride] |  |  |  |  |  |  | Ki [1]: 0.136 µM; Ki ([2]; read-out: Radioligand Binding Ki α1b (Hamster)): 6.14 µM; Ki ([3]; read-out: Radioligand Binding Ki α1d (Rat)): 1.55 µM; EC50 (α1A (rabbit urethra)): 0.513 µM; EC50 (α1B (rat spleen)): 9.33 µM; EC50 (α1D (rat aorta)): 3.31 µM
CCS(=O)(=O)Nc1cccc(C(=C2CCCCC2)c2c[nH]cn2)c1 [Example 56] | 0.229 |  |  | 0.0151 | 0.00198 | 16.2 | EC50 (α1D (rat aorta); rat aorta, endothelium removed): > 1000 µM
O=S(=O)(CCCCl)Nc1cccc2c1CCCC2c1cnc[nH]1 (stereo not shown) [Example 65, 3-Chloro-N-[5-(1H-imidazol-5-yl)-5,6,7,8-tetrahydro-1-naphthalenyl]-1-propanesulfonamide] | 1.16 | 4.4 | 5.3 |  |  |  | 
Cc1ccc(NS(C)(=O)=O)c2c1C(c1c[nH]cn1)CCC2 (stereo not shown) [Example 23, N-[5,6,7,8-tetrahydro-5-(1H-imidazol-4-yl)-4-methyl-1-naphthalenyl]methanesulfonamide, maleate] | 0.391 |  | 2.67 |  |  | 39.8 | EC50 (α1B (rat spleen); rat spleen): > 1000 µM; EC50 (α1D (rat aorta); rat aorta, endothelium removed): > 1000 µM
